Reference: PMC4364393 (Journal of medicinal chemistry, 2015)
Converted amounts (≈) assume the structure as drawn. Read-outs that look alike come from different tables or passages of the source.

Assays:
[1] = system: E. faecalis (Van S) ATCC 29212; test: MIC, E. faecalis; format: cell-based; conditions: Enterococcus faecalis, ATCC29212, read-out: MIC, E. faecalis (Van S) ATCC 29212
[2] = system: E. faecalis (Van B) ATCC 51299; test: MIC, E. faecalis; format: cell-based, Enterococcus faecalis
[3] = system: E. faecalis (Van A) MMX 486; test: MIC, E. faecalis; format: cell-based; conditions: Enterococcus faecalis, read-out: MIC, E. faecalis (Van A) MMX 486
[4] = system: Van A phenotype VRE strain; conditions: cited from earlier work

## CC(=O)NC[C@H]1CN(c2ccc(N3CCOCC3)c(F)c2)C(=O)O1 [Linezolid, linezolid]
[1]
  MIC: 2 µg/mL (≈ 5.93 µM)
[2]; Enterococcus faecalis, ATCC51299, read-out: MIC, E. faecalis (Van B) ATCC 51299
  MIC: 2 µg/mL (≈ 5.93 µM)
[3]
  MIC: 2 µg/mL (≈ 5.93 µM)

## CN[C@H](CC(C)C)C(=O)N[C@H]1C(=O)N[C@@H](CC(N)=O)C(=O)N[C@H]2C(=O)N[C@H]3C(=O)N[C@H](C(=O)N[C@H](C(=O)O)c4cc(O)cc(O)c4-c4cc3ccc4O)[C@H](O)c3ccc(c(Cl)c3)Oc3cc2cc(c3O[C@@H]2O[C@H](CO)[C@@H](O)[C@H](O)[C@H]2O[C@H]2C[C@](C)(N)[C@H](O)[C@H](C)O2)Oc2ccc(cc2Cl)[C@H]1O [Vancomycin, vancomycin]
[4]; based on a literature report
  MIC against Van A phenotype VRE strain: 512 µg/mL (≈ 353 µM)

## G4-decanoyl vancomycin derivative [Compound 9b]
[2]; fold improvement of MIC, compared with vancomycin
  times more active against a VRE strain (Van B phenotype): 64 times

## teicoplanin A2-2
[4]
  MIC against Van A phenotype VRE strain: 128 µg/mL
